Consider five compounds from patent US12473301B2, “Isoquinoline compounds for the treatment of cancer” (Genentech, Inc., priority 2018, dated 2025).

Assay [1] deals with HPK1 (Homo sapiens (Human), UniProt Q92918, S171E/T165E). As to the kind of experiment: HPK1-FL HTRF Enzymatic Assay ("HTRF"). Format: biochemical. Particulars: HPK full length, ATP 1 mM. As for the experimental part:
HPK1-FL HTRF Enzymatic Assay (“HTRF”)
HPK-FL enzyme phosphorylates Biotin-SLP-76 substrate in the presence of ATP at 1 mM and varying concentrations of test compound. Product is detected by FRET using Eu-anti-pSLP76 Ab and SA-XL665. Also see www.cisbio.com/HTRF for additional HTRF technology information.
Instrumentation: Echo555 compound dispenser; Agilent Bravo; Perkin Elmer Envision.
To a 384 well Proxiplate with 80 nL compound or DMSO spotted on was added 4 μl/well kinase mix. The mixture was preincubated for 30 minutes and then 4 μl/well substrate mix was added. The solution was incubated for 60 min and then 4 μl/well detection mix was added. The solution was incubated for another 60 min. The plates were then loaded onto a
Perkin Elmer Envision and the TR-FRET signal was measured at […] and 665 nm. A ratio of 665/620 was used to calculate the % activity at each concentration of compound.

In assay [2] the test system is primary human pan T cells. As to the kind of experiment: Human T-Cell IL2 Induction Assay. It counts as cell-based. Particulars: anti-CD3/anti-CD28 stimulation. Here is the method: Assay Principle: Anti-CD3 and anti-CD28 activates TCR signaling in primary human pan T cells leading to IL-2 promoter induction. Secreted IL-2 in cell culture supernatant is detected by electrochemiluminescence using a capture antibody against IL-2 and an anti-IL-2 antibody labeled with SULFO-tag. Also see www.mesoscale.com for additional electrochemiluminescence technology information.
Assay Procedure: Incubate primary human pan T cells with varying concentrations of test compounds for 30 minutes in a humidified incubator at 37° C. and 5% CO2. Transfer cells to a plate pre-coated with a fixed concentration of anti-human CD3 (determined separately for each donor lot) and add soluble anti-human CD28 (final concentration=1 μg/ml). Stimulate cells in a humidified incubator at 37° C. and 5% CO2 for 4 hours. Transfer 25 μl of supernatant to a MSD single spot plate pre-coated with an anti-human IL-2 antibody. Incubate MSD plate overnight at 4° C. with gentle shaking. Wash MSD plate 4× with wash buffer. Add SULFO-tagged detection antibody at a 1:50 dilution and incubate at room temperature shaking for 2 hours. Wash MSD plate 4× with wash buffer and add 150 μl 2×MSD read buffer. Read on an MSD instrument. Normalize data to stimulated/untreated controls to calculate % activity at each concentration of compound.
• Frozen Primary Human Pan-T Cells (StemCell Technologies #70024) • anti-human CD3 (OKT3 clone) (eBioscience #16-0037-81) • anti-human CD28 (CD28.2 clone) (BD #555725) • 96-well Human IL-2 tissue culture kit (MSD #K151AHB-4) Instrumentation: • Biomek FX for liquid handling (Beckman Coulter) • MSD SECTOR S 600 (Meso Scale Discovery)
Exemplary compounds of Formula (I) were tested in the human T-cell IL-2 induction assays. The % increase measured for IL-2 in cells treated by the test compounds relative to untreated cells are provided in Table B2 for certain compounds.

Chain of HPK1 (Q92918 whole entry T165E/S171E): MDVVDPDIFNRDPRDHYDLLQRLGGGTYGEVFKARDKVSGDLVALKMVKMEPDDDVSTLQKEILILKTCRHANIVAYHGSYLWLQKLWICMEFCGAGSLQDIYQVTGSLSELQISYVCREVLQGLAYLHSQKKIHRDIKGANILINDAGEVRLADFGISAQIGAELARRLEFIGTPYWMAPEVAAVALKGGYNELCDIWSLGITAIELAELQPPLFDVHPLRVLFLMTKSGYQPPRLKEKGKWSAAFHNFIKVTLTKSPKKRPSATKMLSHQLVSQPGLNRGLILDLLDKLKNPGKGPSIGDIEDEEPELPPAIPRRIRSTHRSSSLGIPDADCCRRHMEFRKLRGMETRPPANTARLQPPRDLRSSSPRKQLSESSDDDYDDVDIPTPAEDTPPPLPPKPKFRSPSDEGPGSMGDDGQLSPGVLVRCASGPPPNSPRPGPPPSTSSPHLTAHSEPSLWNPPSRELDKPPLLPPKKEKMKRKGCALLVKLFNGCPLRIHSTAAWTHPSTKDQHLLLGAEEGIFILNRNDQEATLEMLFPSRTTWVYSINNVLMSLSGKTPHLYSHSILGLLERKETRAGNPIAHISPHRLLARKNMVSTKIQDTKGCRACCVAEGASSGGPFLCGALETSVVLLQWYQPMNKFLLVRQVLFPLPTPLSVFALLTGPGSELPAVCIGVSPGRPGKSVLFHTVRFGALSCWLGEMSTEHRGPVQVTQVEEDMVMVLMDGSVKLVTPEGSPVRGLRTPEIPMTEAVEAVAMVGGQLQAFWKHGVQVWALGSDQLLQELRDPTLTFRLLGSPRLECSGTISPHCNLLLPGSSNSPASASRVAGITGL

Turning to `CC[C@@H]1[C@H](C(=O)Nc2cc3cc(-c4cnc5c(c4C)NCCO5)c(F)cc3cn2)[C@H]1c1cnn(C)c1` (single isomer, unassigned) [Compound 301c], in assay [1], the Ki stood at 0.06 nM. Further, in assay [2] (assayed concentration 0.926 μM), the “% IL-2 increase relative to untreated cells” value is reported as 232%.

On to `Cc1c(-c2cc3cc(NC(=O)N[C@H](C)c4cnn(C)c4)ncc3cc2F)cnc2c1NCCO2` [Compound 201a, (R)-1-(7-Fluoro-6-(8-methyl-2,3-dihydro-1H-pyrido[2,3-b][1,4]oxazin-7-yl)isoquinolin-3-yl)-3-(1-(1-methyl-1H-pyrazol-4-yl)ethyl)urea], for which the “% IL-2 increase relative to untreated cells” value in assay [2] (assayed concentration 2.778 μM) came to 145%.

With `Cc1c(-c2cc3cc(NC(=O)OC4CC5(CCNCC5)C4)ncc3cc2F)cnc2c1NCCO2` [Compound 113, 7-Azaspiro[3.5]nonan-2-yl (7-fluoro-6-(8-methyl-2,3-dihydro-1H-pyrido[2,3-b][1,4]oxazin-7-yl)isoquinolin-3-yl)carbamate], in assay [1], the Ki came to 0.27 nM. Moreover, the “% IL-2 increase relative to untreated cells” value in assay [2] (assayed concentration 2.778 μM) came to 702%.

As to `Cc1c(-c2cc3cc(NC(=O)O[C@H]4CCC[C@@H]4C#N)ncc3cc2F)cnc2c1NCCO2` (single isomer, unassigned) [Compound 128b], the Ki in assay [1] turned out to be 0.78 nM.

For `CC[C@@H]1[C@H](C(=O)Nc2cc3cc(-c4c[n+]([O-])ccc4C)c(F)cc3cn2)[C@H]1c1cnn(C)c1` [Compound 302a, 3-(3-((1S,2S,3S)-2-Ethyl-3-(1-methyl-1H-pyrazol-4-yl)cyclopropane-1-carboxamido)-7-fluoroisoquinolin-6-yl)-4-methylpyridine 1-oxide], the Ki in assay [1] came to 1280 nM.
